# Values quoted from earlier work, collected in patent US20250041461A1, “[177LU] LUTETIUM-PSMA I&T COMPOSITION AND DOSIMETRY, KIT, METHOD OF MAKING, AND METHOD OF USING THEREOF” (Curium US LLC, priority 2023, published 2025).
# Where two headings read alike, the source gives them in different places.
# Tests used:
# [1] = cited from earlier work
# prostate cancer = settings: in vivo; cited from earlier work
smiles,measurement,setting,value
"O=C([O-])CC[C@H](NC(=O)N[C@@H](CCCCNC(=O)CCCCCCC(=O)NCCCC[C@@H](NC(=O)[C@@H](Cc1ccccc1)NC(=O)[C@@H](Cc1ccc(O)c(I)c1)NC(=O)CC[C@H](C(=O)[O-])N1CCN(CC(=O)[O-])CCN(CC(=O)[O-])CCN(CC(=O)[O-])CC1)C(=O)[O-])C(=O)[O-])C(=O)[O-].[177Lu+3].[H+].[H+].[H+].[H+].[H+] [^177Lu-PSMA I&T, (3S,7S,26R,29R,32R,37R)-29-benzyl-32-(4-hydroxy-3-iodobenzyl)-5,13,20,28,31,34-hexaoxo-37-(4,7,10-tris(carboxymethyl)-1,4,7,10-tetraazacyclododecan-1-yl)-4,6,12,21,27,30,33-heptaazaheptatriacontane-1,3,7,26,37-pentacarboxylic acid; lutetium-177 (III)]","Absorbed Dose, Kidneys, Mean ± SD",[1]; First cycle (n = 15),0.71 ± 0.25 Gy/GBq
same,"Absorbed Dose, Kidneys, Range",[1]; First cycle (n = 15),0.33-1.22 Gy/GBq
same,"Absorbed Dose, Lacrimal glands, Mean ± SD",[1]; First cycle (n = 15),3.8 ± 1.5 Gy/GBq
same,"Absorbed Dose, Lacrimal glands, Range",[1]; First cycle (n = 15),1.68-7.03 Gy/GBq
same,"Absorbed Dose, Liver, Mean ± SD",[1]; First cycle (n = 15),0.12 ± 0.07 Gy/GBq
same,"Absorbed Dose, Liver, Range",[1]; First cycle (n = 15),0.05-0.26 Gy/GBq
same,"Absorbed Dose, Parotid glands, Mean ± SD",[1]; First cycle (n = 15),0.56 Gy/GBq
same,"Absorbed Dose, Parotid glands, Range",[1]; First cycle (n = 15),0.25-0.84 Gy/GBq
same,"Absorbed Dose, Submandibular glands, Mean ± SD",[1]; First cycle (n = 15),0.54 ± 0.29 Gy/GBq
same,"Absorbed Dose, Submandibular glands, Range",[1]; First cycle (n = 15),0.25-1.35 Gy/GBq
same,"Effective Dose, Whole body, Mean ± SD",[1]; First cycle (n = 15),0.05 Sv/GBq
same,"Effective Dose, Whole body, Range",[1]; First cycle (n = 15),0.02-0.11 Sv/GBq
same,"Absorbed Dose for Tumor Lesions, Lung metastases, Mean ± SD","[1]; First cycle, n 1",2.7 Gy/GBq
same,"Absorbed Dose for Tumor Lesions, Liver metastases, Mean ± SD","[1]; First cycle, n 2",1.7 Gy/GBq
same,"Absorbed Dose for Tumor Lesions, Liver metastases, Range","[1]; First cycle, n 2",0.85-2.59 Gy/GBq
same,"Absorbed Dose for Tumor Lesions, Lymph node metastases, Mean ± SD","[1]; First cycle, n 5",2.6 ± 0.89 Gy/GBq
same,"Absorbed Dose for Tumor Lesions, Lymph node metastases, Range","[1]; First cycle, n 5",1.63-3.76 Gy/GBq
same,"Absorbed Dose for Tumor Lesions, Bone metastases, Mean ± SD","[1]; First cycle, n 33",3.8 ± 3.1 Gy/GBq
same,"Absorbed Dose for Tumor Lesions, Bone metastases, Range","[1]; First cycle, n 33",0.22-12.03 Gy/GBq
same,"Absorbed Dose for Tumor Lesions, All metastases, Mean ± SD","[1]; First cycle, n 41",3.5 ± 2.9 Gy/GBq
same,"Absorbed Dose for Tumor Lesions, All metastases, Range","[1]; First cycle, n 41",0.22-12.03 Gy/GBq
same,"Absorbed Dose for Tumor Lesions, Liver metastases, Mean ± SD","[1]; Fourth cycle, n 2",1.13 Gy/GBq
same,"Absorbed Dose for Tumor Lesions, Liver metastases, Range","[1]; Fourth cycle, n 2",0.74-1.51 Gy/GBq
same,"Absorbed Dose for Tumor Lesions, Bone metastases, Mean ± SD","[1]; Fourth cycle, n 10",2.7 ± 2.3 Gy/GBq
same,"Absorbed Dose for Tumor Lesions, Bone metastases, Range","[1]; Fourth cycle, n 10",1.04-7.60 Gy/GBq
same,"Absorbed Dose for Tumor Lesions, All metastases, Mean ± SD","[1]; Fourth cycle, n 12",2.4 ± 2.2 Gy/GBq
same,"Absorbed Dose for Tumor Lesions, All metastases, Range","[1]; Fourth cycle, n 12",0.74-7.60 Gy/GBq
same,"Absorbed Dose, Kidneys, Mean ± SD",[1]; Fourth cycle,0.69 ± 0.18 Gy/GBq
same,"Absorbed Dose, Kidneys, Range",[1]; Fourth cycle,0.45-0.95 Gy/GBq
same,"Absorbed Dose, Lacrimal glands, Mean ± SD",[1]; Fourth cycle,3.4 ± 1.7 Gy/GBq
same,"Absorbed Dose, Lacrimal glands, Range",[1]; Fourth cycle,1.75-5.35 Gy/GBq
same,"Absorbed Dose, Liver, Mean ± SD",[1]; Fourth cycle,0.11 ± 0.04 Gy/GBq
same,"Absorbed Dose, Liver, Range",[1]; Fourth cycle,0.07-0.17 Gy/GBq
same,"Absorbed Dose, Parotid glands, Mean ± SD",[1]; Fourth cycle,0.50 Gy/GBq
same,"Absorbed Dose, Parotid glands, Range",[1]; Fourth cycle,0.32-0.58 Gy/GBq
same,"Absorbed Dose, Submandibular glands, Mean ± SD",[1]; Fourth cycle,0.66 ± 0.53 Gy/GBq
same,"Absorbed Dose, Submandibular glands, Range",[1]; Fourth cycle,0.24-1.58 Gy/GBq
same,"Effective Dose, Whole body, Mean ± SD",[1]; Fourth cycle,0.05 Sv/GBq
same,"Effective Dose, Whole body, Range",[1]; Fourth cycle,0.03-0.11 Sv/GBq
same,"Absorbed Dose, Kidneys, Mean ± SD",[1]; Overall (n = 34),0.72 ± 0.21 Gy/GBq
same,"Absorbed Dose, Kidneys, Range",[1]; Overall (n = 34),0.33-1.22 Gy/GBq
same,"Absorbed Dose, Lacrimal glands, Mean ± SD",[1]; Overall (n = 34),3.8 ± 1.4 Gy/GBq
same,"Absorbed Dose, Lacrimal glands, Range",[1]; Overall (n = 34),1.68-7.03 Gy/GBq
same,"Absorbed Dose, Liver, Mean ± SD",[1]; Overall (n = 34),0.12 ± 0.06 Gy/GBq
same,"Absorbed Dose, Liver, Range",[1]; Overall (n = 34),0.05-0.26 Gy/GBq
same,"Absorbed Dose, Parotid glands, Mean ± SD",[1]; Overall (n = 34),0.55 Gy/GBq
same,"Absorbed Dose, Parotid glands, Range",[1]; Overall (n = 34),0.25-0.84 Gy/GBq
same,"Absorbed Dose, Submandibular glands, Mean ± SD",[1]; Overall (n = 34),0.64 ± 0.40 Gy/GBq
same,"Absorbed Dose, Submandibular glands, Range",[1]; Overall (n = 34),0.24-1.70 Gy/GBq
same,"Effective Dose, Whole body, Mean ± SD",[1]; Overall (n = 34),0.06 Sv/GBq
same,"Effective Dose, Whole body, Range",[1]; Overall (n = 34),0.02-0.11 Sv/GBq
same,"Absorbed Dose for Tumor Lesions, Lung metastases, Mean ± SD","[1]; Overall, n 3",1.75 ± 0.92 Gy/GBq
same,"Absorbed Dose for Tumor Lesions, Lung metastases, Range","[1]; Overall, n 3",0.94-2.68 Gy/GBq
same,"Absorbed Dose for Tumor Lesions, Liver metastases, Mean ± SD","[1]; Overall, n 8",1.2 ± 0.67 Gy/GBq
same,"Absorbed Dose for Tumor Lesions, Liver metastases, Range","[1]; Overall, n 8",0.47-2.59 Gy/GBq
same,"Absorbed Dose for Tumor Lesions, Lymph node metastases, Mean ± SD","[1]; Overall, n 8",3.2 ± 2.2 Gy/GBq
same,"Absorbed Dose for Tumor Lesions, Lymph node metastases, Range","[1]; Overall, n 8",1.63-8.46 Gy/GBq
same,"Absorbed Dose for Tumor Lesions, Bone metastases, Mean ± SD","[1]; Overall, n 74",3.4 ± 2.7 Gy/GBq
same,"Absorbed Dose for Tumor Lesions, Bone metastases, Range","[1]; Overall, n 74",0.22-12.03 Gy/GBq
same,"Absorbed Dose for Tumor Lesions, All metastases, Mean ± SD","[1]; Overall, n 93",3.2 ± 2.6 Gy/GBq
same,"Absorbed Dose for Tumor Lesions, All metastases, Range","[1]; Overall, n 93",0.22-12.03 Gy/GBq
same,"Absorbed Dose for Tumor Lesions, Lung metastases, Mean ± SD","[1]; Second cycle, n 1",1.3 Gy/GBq
same,"Absorbed Dose for Tumor Lesions, Liver metastases, Mean ± SD","[1]; Second cycle, n 2",0.94 Gy/GBq
same,"Absorbed Dose for Tumor Lesions, Liver metastases, Range","[1]; Second cycle, n 2",0.70-1.17 Gy/GBq
same,"Absorbed Dose for Tumor Lesions, Lymph node metastases, Mean ± SD","[1]; Second cycle, n 2",5.2 Gy/GBq
same,"Absorbed Dose for Tumor Lesions, Lymph node metastases, Range","[1]; Second cycle, n 2",1.98-8.46 Gy/GBq
same,"Absorbed Dose for Tumor Lesions, Bone metastases, Mean ± SD","[1]; Second cycle, n 21",3.4 ± 2.4 Gy/GBq
same,"Absorbed Dose for Tumor Lesions, Bone metastases, Range","[1]; Second cycle, n 21",1.03-9.59 Gy/GBq
same,"Absorbed Dose for Tumor Lesions, All metastases, Mean ± SD","[1]; Second cycle, n 26",3.3 ± 2.5 Gy/GBq
same,"Absorbed Dose for Tumor Lesions, All metastases, Range","[1]; Second cycle, n 26",0.70-8.46 Gy/GBq
same,"Absorbed Dose, Kidneys, Mean ± SD",[1]; Second cycle,0.75 ± 0.19 Gy/GBq
same,"Absorbed Dose, Kidneys, Range",[1]; Second cycle,0.44-1.01 Gy/GBq
same,"Absorbed Dose, Lacrimal glands, Mean ± SD",[1]; Second cycle,4.1 ± 1.1 Gy/GBq
same,"Absorbed Dose, Lacrimal glands, Range",[1]; Second cycle,2.44-5.56 Gy/GBq
same,"Absorbed Dose, Liver, Mean ± SD",[1]; Second cycle,0.13 ± 0.05 Gy/GBq
same,"Absorbed Dose, Liver, Range",[1]; Second cycle,0.08-0.21 Gy/GBq
same,"Absorbed Dose, Parotid glands, Mean ± SD",[1]; Second cycle,0.59 Gy/GBq
same,"Absorbed Dose, Parotid glands, Range",[1]; Second cycle,0.47-0.80 Gy/GBq
same,"Absorbed Dose, Submandibular glands, Mean ± SD",[1]; Second cycle,0.71 ± 0.42 Gy/GBq
same,"Absorbed Dose, Submandibular glands, Range",[1]; Second cycle,0.40-1.70 Gy/GBq
same,"Effective Dose, Whole body, Mean ± SD",[1]; Second cycle,0.06 Sv/GBq
same,"Effective Dose, Whole body, Range",[1]; Second cycle,0.03-0.11 Sv/GBq
same,"Absorbed Dose for Tumor Lesions, Lung metastases, Mean ± SD","[1]; Third cycle, n 1",0.94 Gy/GBq
same,"Absorbed Dose for Tumor Lesions, Lymph node metastases, Mean ± SD","[1]; Third cycle, n 1",2.6 Gy/GBq
same,"Absorbed Dose for Tumor Lesions, Lymph node metastases, Range","[1]; Third cycle, n 1",18.87 Gy/GBq
same,"Absorbed Dose for Tumor Lesions, Liver metastases, Mean ± SD","[1]; Third cycle, n 2",0.95 Gy/GBq
same,"Absorbed Dose for Tumor Lesions, Liver metastases, Range","[1]; Third cycle, n 2",0.47-1.42 Gy/GBq
same,"Absorbed Dose for Tumor Lesions, Bone metastases, Mean ± SD","[1]; Third cycle, n 10",3.2 ± 2.5 Gy/GBq
same,"Absorbed Dose for Tumor Lesions, Bone metastases, Range","[1]; Third cycle, n 10",1.11-7.99 Gy/GBq
same,"Absorbed Dose for Tumor Lesions, All metastases, Mean ± SD","[1]; Third cycle, n 14",2.7 ± 2.3 Gy/GBq
same,"Absorbed Dose for Tumor Lesions, All metastases, Range","[1]; Third cycle, n 14",0.94-7.99 Gy/GBq
same,"Absorbed Dose, Kidneys, Mean ± SD",[1]; Third cycle,0.73 ± 0.22 Gy/GBq
same,"Absorbed Dose, Kidneys, Range",[1]; Third cycle,0.42-0.93 Gy/GBq
same,"Absorbed Dose, Lacrimal glands, Mean ± SD",[1]; Third cycle,3.5 ± 1.4 Gy/GBq
same,"Absorbed Dose, Lacrimal glands, Range",[1]; Third cycle,2.41-5.04 Gy/GBq
same,"Absorbed Dose, Liver, Mean ± SD",[1]; Third cycle,0.12 ± 0.06 Gy/GBq
same,"Absorbed Dose, Liver, Range",[1]; Third cycle,0.07-0.21 Gy/GBq
same,"Absorbed Dose, Parotid glands, Mean ± SD",[1]; Third cycle,0.49 Gy/GBq
same,"Absorbed Dose, Parotid glands, Range",[1]; Third cycle,0.32-0.64 Gy/GBq
same,"Absorbed Dose, Submandibular glands, Mean ± SD",[1]; Third cycle,0.83 ± 0.59 Gy/GBq
same,"Absorbed Dose, Submandibular glands, Range",[1]; Third cycle,0.33-1.68 Gy/GBq
same,"Effective Dose, Whole body, Mean ± SD",[1]; Third cycle,0.06 Sv/GBq
same,"Effective Dose, Whole body, Range",[1]; Third cycle,0.03-0.10 Sv/GBq
same,mean whole-body effective dose,[1]; all cycles,0.41±0.18 Sv
same,mean whole-body effective dose per GBq,[1]; all cycles,0.06 Sv/GBq
same,adverse effects,prostate cancer,mainly transient adverse effects
